Data as given in patent US11542297B2, “Compositions and methods for treating CNS disorders” (Sage Therapeutics, Inc., priority 2014, dated 2023).

System: PTZ-treated mice
Assay: Acute PTZ method (pentylenetetrazol-induced seizure assay)
Assay type: in vivo
Details: Mus musculus, lowest dose significantly affecting latency to tonic seizures in PTZ-treated mice, PO, read-out: Anticonvulsive Effect Dose
Description: The anticonvulsant effect of test compounds were assessed in a pentylenetetazol-induced seizure assay in mice similar to methods described in Giardina & Gasior (Curr Protoc Pharmacol. 2009). Male CD-1 mice were housed in groups of five under controlled conditions (temperature of 22±2° C. and 12:12 light-dark cycle, lights on at 8:00 am) and water and food were available ad libitum. The mice were housed for 1 week prior to behavioral testing, at which time they weighed 25-35 g. Pentylenetetrazol (PTZ, Sigma) was dissolved in sterile 0.9% saline at a concentration of 12 mg/mL concentration for subcutaneous administration. Test compounds were formulated and administered via oral gavage or intraperitoneal injection at a predetermined time-point (typically 30 or 60 minutes) prior to PTZ injection. […]
Mice were acclimated to the test room for at least 30 min before compound administration. […] Each mouse was continuously observed for 30 min and the following behaviors were recorded by observers blinded to the treatments: 1) latency to clonic convulsions that persist for 3 sec and followed by an absence of righting reflex 2) latency to tonic convulsions, characterized by the rigid extension of all four limbs that exceeded a 90 degree angle with the body 3) latency to death 4) number of clonic and tonic convulsions. […]

Compound C[C@@]1(O)CC[C@@]2(C)[C@H](CC[C@@H]3[C@@H]2CC[C@]2(C)[C@@H](C(=O)Cn4ccc(C#N)n4)CC[C@@H]32)C1 [Compound 24] has a minimal effective dose of 1 to 5 mg/kg.

For Cc1nnn(CC(=O)[C@H]2CC[C@H]3[C@@H]4CC[C@@H]5C[C@](C)(O)CC[C@]5(C)[C@H]4CC[C@]23C)n1 [Compound 32], the minimal effective dose was ≤ 1 mg/kg.
